Legend:
[1] = Observation of overt toxicity in treated animals; type: in vivo; details: animals given the drug for the duration of the experiments
NFκB = experiment: NFκB-response element luciferase reporter in L1 preadipocytes; type: cell-based; details: prieurianin 2 μM
NIH-3T3/L1 preadipocytes [2] = type: cell-based; details: 2 μM
Procedure: FIG. 7D. Flow cytometric analysis of annexin V binding to phosphatidylserine, apoptotic cells are on the upper right quadrant. All experiments were conducted in triplicate.

[3] = Body weight, food intake, serum parameters and adiposity in normal C57BL/6J mice; type: in vivo
Procedure: FIG. 4. Effects of prieurianin on blood insulin, glucose and NEFA levels. Normal and ob/ob mice were treated with 5 mg/kg of prieurianin and serum samples were then collected for (FIG. 4A) insulin; (FIG. 4B) glucose; and (FIG. 4C) non-esterified fatty acid (NEFA) profiling. Results are means of three animals per group for each treatment. Blue column, normal C57BL/6J; and red column, leptin-deficient ob/ob mice.
Prieurianin was administered intraperitoneally to 12-14 week-old normal C57BL/6J mice and the genetically leptin-deficient ob/ob mice (2 or 5 mg/kg) twice a week for two weeks. Controls received equivolume injections of drug vehicle. Body weight and food intake were measured every three days, and blood samples were collected at the end of the experiment.
Obesity contributes to hypertension, high serum cholesterol, low HDL cholesterol, and hyperglycemia, thus potentially leading to higher risk of cardiovascular disease. Abdominal obesity especially correlates with metabolic risk factors. The leptin-deficient ob/ob mice are hyperlipidemic, and hyperglycemic. To test whether prieurianin altered the metabolic or endocrinological parameters in addition to appetite, the serum lipid profile, insulin and glucose levels were measured.
To further examine the effects of prieurianin on the adiposity of the normal C57BL/6J and the ob/ob mice, we measured their visceral and subcutaneous body fat.

[4] = Diet-induced obese (DIO) C57BL/6J (B6) mice; type: in vivo
Procedure: FIG. 16. Effects of prieurianin in diet-induced obese C57Bl/6J mice. B6 mice were put on 60% kcal high fat diet for approximately 15 weeks and then divided into groups of 10 and were then treated with either 1 (green) or 3 (brown) mg/kg of prieurianin daily intraperitoneally for three weeks compared to untreated (blue) or vehicle-treated (red) controls.
FIG. 16A. Average weight changes of mice treated with prieurianin compared to controls through three weeks of treatment.
FIG. 16B. Average food consumption in B6 mice treated with prieurianin as in FIG. 16A.
FIG. 16C. Average weight changes in B6 mice treated with prieurianin on an “on-off” cyclical schedule for a total of 4 cycles described in the text. Results are the means S.E. of 10 animals per group, and the 3 mg/kg group with 20 mice.
The B6 mice were fed a 60% kcal high fat diet for approximately 15 weeks to gain weight and then treated with either 1 or 3 mg/kg of prieurianin intraperitoneally daily for 3 weeks. Mice continued to have access to the 60% kcal diet ad libitum during treatment.
To circumvent the problem of drug induced tolerance, a new protocol was developed where prieurianin treatment was stopped with the DIO mice, and the mice continued to be maintained on the high fat 60% kcal diet. Four weeks later, the mice were treated again with the following protocol: either 3 mg/kg of prieurianin for 5 days and followed by 5 days of drug holiday (no treatment), with the treatment repeated for 3 more cycles; or 5 mg/kg of prieurianin for 3 days and followed by 5 days of drug holiday, with the treatment repeated for 3 more cycles.

NIH-3T3/L1 preadipocytes [5] = experiment: Proliferation of NIH-3T3/L1 preadipocytes (daily cell counting); type: cell-based
Procedure: FIG. 6. Inhibition of NIH-3T3/L1 preadipocytes proliferation by prieurianin. Cells were treated with various concentrations (0.5, 1, and 2 μM) of prieurianin and growth was assessed by counting daily for 7 days. Results are means±S.E. of triplicate experiments.

[6] = type: in vivo, mice
Procedure: FIG. 15B. Genetically diabetic Ceacam^−/− knockout mice were fed high fat diet for fattening for 4 weeks followed by daily prieurianin treatment (3 or 5 mg/kg) for 21 days. Vehicle treated db/db and Ceacam^−/− mice were given equivolume of Captisol. Results are the means S.E. of 10 animals per group.
The effects of prieurianin were tested in three additional mouse models of obesity including the genetically hyperinsulinemic leptin-receptor deficient db/db, the Ceacam−/− glucose intolerant/diabetic, and the diet-induced obese mice. Prieurianin was administered intraperitoneally (i.p.) to 12-14 week-old db/db mice daily (3 or 5 mg/kg) for 30 days. The diet-induced obese Ceacam−/− diabetic mice were fed a high fat diet for 4 weeks for fattening, followed by prieurianin treatment (3 or 5 mg/kg) for 3 weeks. Vehicle treated controls received equivolume injections of Captisol (CyDex Inc., Lenexa, Kans.). Body weight and food intake were measured every three days, and blood samples were collected at the end of the experiment.

adiponectin = experiment: Adiponectin release into conditioned media (Western blot); type: cell-based
Procedure: FIG. 10. Release of adiponectin and PLTP by preadipocytes and adipocytes, and in serum of normal mice. Preadipocytes (B and D) were treated with 2 μM of prieurianin and media collected after 36 hrs for Western blot analysis of either adiponectin (A and B) or PLTP (C and D). Alternatively, five days following differentiation, conditioned media of adipocyets (A and C) were collected for Western analysis. E. Serum of normal C57BL/6J mice given prieurianin or topotecan (0, 2, 5, and 10 mg/kg) was analyzed by Western blot for PLTP.
Adipose tissue contains various types of cells including preadipocytes and adipocytes. Also, preadipocytes secrete factors involved in their own differentiation. Once differentiated, the mature adipocytes acquire the ability to communicate distally with other organs including brain, liver, and skeletal muscle and locally with other cells such as preadipocytes, endothelial cells and monocytes/macrophages by secreting leptin and adiponectin. In addition, anti-adipogenic cytokines prevent the release of adiponectin by preadipocytes. Thus, the production of adiponectin and PLTP by preadipocytes and adipocytes was assessed.

In the case of `C=C1[C@@H]([C@@]2(C)[C@@H](OC(C)=O)CC(=O)O[C@](C)(COC(C)=O)[C@@H]2C(=O)OC)[C@@H](OC=O)[C@H](OC(=O)[C@H](O)[C@H](C)CC)[C@@]2(C)[C@H](c3ccoc3)CC(=O)[C@]12O` [prieurianin], the overt toxicity [1] was “no overt toxicity was observed”, the “NFκB-response element mediated transcription” value (NFκB) was “induces transactivation from the NFκB-response element mediated transcription” and the “apoptosis (annexin V binding to phosphatidylserine)” value (NIH-3T3/L1 preadipocytes [2]) was “did not differentially induce apoptosis”. For the same molecule, the food intake ([3]; normal C57BL/6J mice) was “reduced food intake”, the glucose levels ([3]; normal C57BL/6J mice) was “did not alter the insulin or the glucose levels significantly” and the insulin levels ([3]; normal C57BL/6J mice) was “did not alter the insulin or the glucose levels significantly”. For the same molecule, the “serum PLTP activity” value ([3]; normal C57BL/6J mice) was “increase in serum PLTP activity”, the body weight ([3]; normal C57BL/6J mice, 2 or 5 mg/kg i.p. twice a week, two weeks) was “modest body weight loss” and the percent body fat ([3]; normal C57BL/6J mice, any dose) was “not significantly altered”. The NEFA levels ([3]; normal mice) was “decrease in NEFA levels”, the leptin levels ([3]; normal mice) was “decrease in leptin levels” and the HDL levels ([3]; normal mice, serum) was “remained relatively unchanged”. The total cholesterol level ([3]; normal mice, serum) was “remained relatively unchanged”, the triglyceride levels ([3]; normal mice, serum) was “no significant changes” and the “decrease in food consumption” value ([4]; 1 or 3 mg/kg i.p. daily) was 70-80%. For the same molecule, the “weight loss of total body weight” value ([4]; 1 or 3 mg/kg i.p. daily, within seven days of treatment) was “up to 10%”, the “body weight course after attained weight loss” value ([4]; daily treatment for 3 weeks) was “gradual increase in body weight after week two” and the “decrease in body weight” value ([4]; on-off cyclical schedule, 3 or 5 mg/kg, 4 cycles) was “up to 20%”. For the same molecule, the “reduction of food consumption” value ([4]; on-off cyclical treatment protocol) was “approximately 40%”, the proliferation of preadipocytes (NIH-3T3/L1 preadipocytes [5]; 0.5, 1 and 2 μM, 7 days) was “inhibited the proliferation of the NIH-3T3/L1 preadipocytes in a dose-dependent manner” and the inhibition at 2 µM (NIH-3T3/L1 preadipocytes [5]; Mus musculus, NIH3T3, 168 h, 2 μM, day 7) was 50%. For the same molecule, the “body weight relative to pre-fattening” value ([6]; 3 mg/kg treated group) was “Body weight returned to pre-fattening level”, the toxicity ([6]; Ceacam−/− mice given 5 mg/kg) was “euthanized after 14 days of treatment due to severe weight loss and unknown toxicity” and the “subcutaneous or visceral fats in postmortem analysis” value ([6]; Ceacam−/− mice given 5 mg/kg, relative to controls) was “Little subcutaneous or visceral fats were observed”. For the same molecule, the body weight loss ([6]; diet-induced obese Ceacam−/− mice, 3 or 5 mg/kg) was 20-26%, the reduced food intake ([6]; diet-induced obese Ceacam−/− mice, compared to controls) was greater than 50% and the “adiponectin release by preadipocytes” value (adiponectin; NIH-3T3/L1 preadipocytes, approximately 36 hrs after treatment) was “inhibition of adiponectin release”. For the same molecule, the “adiponectin production and release in differentiated adipocytes” value (adiponectin; differentiated adipocytes) was “induced the production and release of high molecular weight form, as well as a modest increase in the secretion of total adiponectin”.

From US20100284925A1, “Small Molecule Intervention for Obesity” (priority 2006, published 2010)
